Remaining activity data for one compound are collected here from paper PMC4579270, “Identification and Characterization of an Irreversible Inhibitor of CDK2” (Chemistry & Biology, 2015).

Common to all, as to assay: Dundee protein kinase screen
Assay type in all cases: biochemical

One assay concerns the target DYRK1A (Homo sapiens, UniProt Q13627). The settings on record: read-out: %Remaining activity at 1µM NU6300. The method, boiled down:
(§1)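 Selectivity panel of 131 protein kinases, inhibitor tested at a single concentration of 1 µM; values are % kinase activity remaining, mean of duplicates. Re-test of selected kinases used 0.5 µM in the standard format and again after a 4 hour pre-incubation with the inhibitor.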

The next assay has as its target TTBK1 (Homo sapiens, UniProt Q5TCY1). As to conditions: TTBK1, 1µM; read-out: %Remaining activity at 1µM NU6300. The essentials:
as §1

The next assay addresses EPH-B2 (Homo sapiens, UniProt P29323). The settings on record: EPH-B2, 1µM; read-out: %Remaining activity at 1µM NU6300. The essentials: as §1
The target in another assay is PRAK (Homo sapiens, UniProt Q8IW41). As to conditions: read-out: %Remaining activity at 1µM NU6300. The essentials:
as §1

The target in another assay is JAK2 (Homo sapiens, UniProt O60674). As to conditions: JAK2, 1µM; read-out: %Remaining activity at 1µM NU6300. The method, boiled down: as §1
In a further assay the target is PAK4 (Homo sapiens, UniProt O96013). The settings on record: PAK4, 1µM; read-out: %Remaining activity at 1µM NU6300. The method, boiled down: as §1
Sequence of PAK4 (O96013 whole entry): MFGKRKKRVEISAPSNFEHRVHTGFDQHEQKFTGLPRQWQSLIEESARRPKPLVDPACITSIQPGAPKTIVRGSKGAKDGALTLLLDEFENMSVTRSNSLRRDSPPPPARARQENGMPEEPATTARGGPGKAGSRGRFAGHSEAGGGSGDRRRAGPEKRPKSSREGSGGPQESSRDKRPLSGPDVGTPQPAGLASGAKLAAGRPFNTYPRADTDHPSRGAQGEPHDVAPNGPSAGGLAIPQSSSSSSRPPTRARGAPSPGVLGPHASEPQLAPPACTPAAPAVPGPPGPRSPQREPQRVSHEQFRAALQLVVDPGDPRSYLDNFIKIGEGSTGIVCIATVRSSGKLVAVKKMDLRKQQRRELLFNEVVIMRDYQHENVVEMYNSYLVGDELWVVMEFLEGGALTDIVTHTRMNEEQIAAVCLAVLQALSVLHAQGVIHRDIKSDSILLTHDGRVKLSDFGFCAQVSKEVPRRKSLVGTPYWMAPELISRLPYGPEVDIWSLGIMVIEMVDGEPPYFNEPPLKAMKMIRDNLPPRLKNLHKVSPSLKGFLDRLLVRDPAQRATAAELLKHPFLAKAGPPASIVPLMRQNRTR
For the next assay, the target named is NEK6 (Homo sapiens, UniProt Q9HC98). As to conditions: NEK6, 1µM; read-out: %Remaining activity at 1µM NU6300. The essentials: as §1
Sequence of NEK6 (Q9HC98 whole entry): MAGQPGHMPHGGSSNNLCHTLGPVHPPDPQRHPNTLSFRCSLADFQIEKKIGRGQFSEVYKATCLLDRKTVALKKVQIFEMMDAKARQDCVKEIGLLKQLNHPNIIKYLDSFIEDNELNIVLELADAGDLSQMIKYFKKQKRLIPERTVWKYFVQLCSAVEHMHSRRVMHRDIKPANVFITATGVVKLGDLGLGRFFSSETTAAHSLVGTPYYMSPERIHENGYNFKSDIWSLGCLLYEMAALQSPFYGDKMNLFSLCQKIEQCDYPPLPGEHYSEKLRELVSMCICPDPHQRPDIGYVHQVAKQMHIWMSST
In another assay the target is FGF-R1 (Homo sapiens, UniProt P11362). As to conditions: FGF-R1, 1µM; read-out: %Remaining activity at 1µM NU6300. The method, boiled down: as §1
Sequence of FGF-R1 (P11362 22-822): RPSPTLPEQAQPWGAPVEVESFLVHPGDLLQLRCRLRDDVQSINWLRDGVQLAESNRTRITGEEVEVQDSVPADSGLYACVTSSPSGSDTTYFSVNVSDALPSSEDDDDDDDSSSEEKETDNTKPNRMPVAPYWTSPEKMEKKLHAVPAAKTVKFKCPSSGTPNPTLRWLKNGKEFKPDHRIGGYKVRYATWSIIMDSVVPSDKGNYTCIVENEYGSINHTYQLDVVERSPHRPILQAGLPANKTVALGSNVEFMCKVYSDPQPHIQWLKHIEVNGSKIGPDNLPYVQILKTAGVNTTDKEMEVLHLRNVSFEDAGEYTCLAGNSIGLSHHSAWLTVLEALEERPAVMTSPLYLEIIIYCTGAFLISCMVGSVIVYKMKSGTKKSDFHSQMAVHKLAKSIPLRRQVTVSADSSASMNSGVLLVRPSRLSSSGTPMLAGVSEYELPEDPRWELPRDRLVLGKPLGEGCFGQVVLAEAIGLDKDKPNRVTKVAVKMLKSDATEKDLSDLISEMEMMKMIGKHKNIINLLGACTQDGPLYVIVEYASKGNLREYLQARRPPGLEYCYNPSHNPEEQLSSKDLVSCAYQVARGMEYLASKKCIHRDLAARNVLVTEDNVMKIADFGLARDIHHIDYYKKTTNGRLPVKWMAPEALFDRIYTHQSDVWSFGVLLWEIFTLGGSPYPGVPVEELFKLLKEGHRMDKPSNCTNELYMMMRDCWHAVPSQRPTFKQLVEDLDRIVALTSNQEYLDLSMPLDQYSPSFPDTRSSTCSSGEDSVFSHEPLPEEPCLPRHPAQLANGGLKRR
A further assay has as its target DYRK3 (Homo sapiens, UniProt O43781). The settings on record: DYRK3, 1µM; read-out: %Remaining activity at 1µM NU6300. The method, boiled down: as §1
The target in the next assay is T1, TAO1 (Homo sapiens, UniProt Q7L7X3).
T1 sequence (Q7L7X3 1-1001): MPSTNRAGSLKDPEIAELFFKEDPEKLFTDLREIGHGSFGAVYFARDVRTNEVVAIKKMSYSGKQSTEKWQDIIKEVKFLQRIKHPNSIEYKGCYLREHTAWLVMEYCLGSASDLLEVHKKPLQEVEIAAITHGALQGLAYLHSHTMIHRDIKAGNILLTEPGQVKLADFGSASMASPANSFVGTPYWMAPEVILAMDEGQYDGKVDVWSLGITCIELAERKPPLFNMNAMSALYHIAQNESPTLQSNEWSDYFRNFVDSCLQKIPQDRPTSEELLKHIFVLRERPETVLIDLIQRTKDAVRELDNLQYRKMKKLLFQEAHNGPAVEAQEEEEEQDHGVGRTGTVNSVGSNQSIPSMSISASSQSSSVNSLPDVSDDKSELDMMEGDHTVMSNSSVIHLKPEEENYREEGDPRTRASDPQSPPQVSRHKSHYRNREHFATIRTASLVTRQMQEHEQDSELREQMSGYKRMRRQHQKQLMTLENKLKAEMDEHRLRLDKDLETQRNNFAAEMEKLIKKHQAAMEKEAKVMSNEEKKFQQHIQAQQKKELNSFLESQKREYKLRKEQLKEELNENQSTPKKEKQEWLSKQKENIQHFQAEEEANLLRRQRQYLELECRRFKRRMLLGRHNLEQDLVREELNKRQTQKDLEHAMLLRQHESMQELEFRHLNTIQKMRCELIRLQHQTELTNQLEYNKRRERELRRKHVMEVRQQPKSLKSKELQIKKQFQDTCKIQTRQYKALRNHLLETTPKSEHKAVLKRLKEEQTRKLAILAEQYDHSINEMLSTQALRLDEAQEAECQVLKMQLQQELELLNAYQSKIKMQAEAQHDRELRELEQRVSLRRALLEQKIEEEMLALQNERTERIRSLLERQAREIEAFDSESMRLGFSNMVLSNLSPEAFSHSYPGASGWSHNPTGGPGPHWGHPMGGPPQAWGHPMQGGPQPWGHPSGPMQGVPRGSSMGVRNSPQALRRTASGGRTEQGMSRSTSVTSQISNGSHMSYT
The settings on record: TAO1, 1µM; read-out: %Remaining activity at 1µM NU6300. The essentials:
as §1

The target of another assay is MKK6 (Homo sapiens, UniProt P52564). As to conditions: MKK6, 1µM; read-out: %Remaining activity at 1µM NU6300. The essentials:
as §1

As a reminder, the remaining activity is the share of the control activity or signal that is left under treatment.

Structures are written as SMILES.

Sequence of MKK6 (P52564 whole entry): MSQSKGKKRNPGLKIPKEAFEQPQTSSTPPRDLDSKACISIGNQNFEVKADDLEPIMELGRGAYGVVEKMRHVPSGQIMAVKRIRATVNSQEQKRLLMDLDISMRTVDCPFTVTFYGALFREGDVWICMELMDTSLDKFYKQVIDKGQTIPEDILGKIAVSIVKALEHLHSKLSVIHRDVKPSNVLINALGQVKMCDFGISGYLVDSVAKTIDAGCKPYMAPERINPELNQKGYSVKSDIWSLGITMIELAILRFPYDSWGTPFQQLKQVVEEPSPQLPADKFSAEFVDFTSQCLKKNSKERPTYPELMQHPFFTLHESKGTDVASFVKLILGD
Sequence of PRAK (Q8IW41 whole entry): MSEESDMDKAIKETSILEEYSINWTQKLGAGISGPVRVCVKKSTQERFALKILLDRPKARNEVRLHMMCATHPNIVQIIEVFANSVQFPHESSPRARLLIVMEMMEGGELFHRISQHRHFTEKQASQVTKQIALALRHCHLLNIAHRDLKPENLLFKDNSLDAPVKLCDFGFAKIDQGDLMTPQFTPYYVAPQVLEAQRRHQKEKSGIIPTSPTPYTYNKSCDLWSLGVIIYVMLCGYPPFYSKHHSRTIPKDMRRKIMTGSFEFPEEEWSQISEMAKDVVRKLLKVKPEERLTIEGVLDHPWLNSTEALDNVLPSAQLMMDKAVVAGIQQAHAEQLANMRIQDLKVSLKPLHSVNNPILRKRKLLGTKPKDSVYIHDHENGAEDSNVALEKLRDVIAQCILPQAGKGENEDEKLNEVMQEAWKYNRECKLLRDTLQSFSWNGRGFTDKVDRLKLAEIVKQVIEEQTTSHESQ
Sequence of EPH-B2 (P29323 19-1055): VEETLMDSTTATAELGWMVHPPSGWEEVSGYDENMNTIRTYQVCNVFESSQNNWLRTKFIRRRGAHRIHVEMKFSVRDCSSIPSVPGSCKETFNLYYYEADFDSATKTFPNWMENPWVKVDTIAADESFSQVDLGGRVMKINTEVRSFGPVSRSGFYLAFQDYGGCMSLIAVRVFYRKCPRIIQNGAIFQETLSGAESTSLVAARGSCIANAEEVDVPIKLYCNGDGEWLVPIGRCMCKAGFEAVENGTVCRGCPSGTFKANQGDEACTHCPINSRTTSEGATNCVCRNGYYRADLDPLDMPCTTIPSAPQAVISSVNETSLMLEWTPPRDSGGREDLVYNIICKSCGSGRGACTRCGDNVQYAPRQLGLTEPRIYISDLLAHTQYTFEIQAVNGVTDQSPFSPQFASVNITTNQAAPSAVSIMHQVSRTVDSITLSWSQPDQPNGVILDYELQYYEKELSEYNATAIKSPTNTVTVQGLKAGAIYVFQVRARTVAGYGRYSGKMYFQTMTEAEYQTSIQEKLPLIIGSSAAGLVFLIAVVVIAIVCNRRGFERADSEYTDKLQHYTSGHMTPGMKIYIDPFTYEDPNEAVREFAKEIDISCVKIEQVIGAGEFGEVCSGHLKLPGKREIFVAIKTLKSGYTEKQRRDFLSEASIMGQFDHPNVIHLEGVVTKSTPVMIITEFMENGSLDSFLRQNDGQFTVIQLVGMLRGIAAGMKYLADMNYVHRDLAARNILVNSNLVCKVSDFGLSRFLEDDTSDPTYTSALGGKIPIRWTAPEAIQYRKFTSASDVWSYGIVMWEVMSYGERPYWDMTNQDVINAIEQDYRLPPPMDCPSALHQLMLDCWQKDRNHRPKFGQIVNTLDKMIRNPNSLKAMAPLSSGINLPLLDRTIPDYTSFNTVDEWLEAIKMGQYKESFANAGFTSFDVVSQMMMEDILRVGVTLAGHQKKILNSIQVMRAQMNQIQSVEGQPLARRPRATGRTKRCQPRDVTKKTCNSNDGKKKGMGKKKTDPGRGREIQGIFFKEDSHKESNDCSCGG
Sequence of TTBK1 (Q5TCY1 whole entry): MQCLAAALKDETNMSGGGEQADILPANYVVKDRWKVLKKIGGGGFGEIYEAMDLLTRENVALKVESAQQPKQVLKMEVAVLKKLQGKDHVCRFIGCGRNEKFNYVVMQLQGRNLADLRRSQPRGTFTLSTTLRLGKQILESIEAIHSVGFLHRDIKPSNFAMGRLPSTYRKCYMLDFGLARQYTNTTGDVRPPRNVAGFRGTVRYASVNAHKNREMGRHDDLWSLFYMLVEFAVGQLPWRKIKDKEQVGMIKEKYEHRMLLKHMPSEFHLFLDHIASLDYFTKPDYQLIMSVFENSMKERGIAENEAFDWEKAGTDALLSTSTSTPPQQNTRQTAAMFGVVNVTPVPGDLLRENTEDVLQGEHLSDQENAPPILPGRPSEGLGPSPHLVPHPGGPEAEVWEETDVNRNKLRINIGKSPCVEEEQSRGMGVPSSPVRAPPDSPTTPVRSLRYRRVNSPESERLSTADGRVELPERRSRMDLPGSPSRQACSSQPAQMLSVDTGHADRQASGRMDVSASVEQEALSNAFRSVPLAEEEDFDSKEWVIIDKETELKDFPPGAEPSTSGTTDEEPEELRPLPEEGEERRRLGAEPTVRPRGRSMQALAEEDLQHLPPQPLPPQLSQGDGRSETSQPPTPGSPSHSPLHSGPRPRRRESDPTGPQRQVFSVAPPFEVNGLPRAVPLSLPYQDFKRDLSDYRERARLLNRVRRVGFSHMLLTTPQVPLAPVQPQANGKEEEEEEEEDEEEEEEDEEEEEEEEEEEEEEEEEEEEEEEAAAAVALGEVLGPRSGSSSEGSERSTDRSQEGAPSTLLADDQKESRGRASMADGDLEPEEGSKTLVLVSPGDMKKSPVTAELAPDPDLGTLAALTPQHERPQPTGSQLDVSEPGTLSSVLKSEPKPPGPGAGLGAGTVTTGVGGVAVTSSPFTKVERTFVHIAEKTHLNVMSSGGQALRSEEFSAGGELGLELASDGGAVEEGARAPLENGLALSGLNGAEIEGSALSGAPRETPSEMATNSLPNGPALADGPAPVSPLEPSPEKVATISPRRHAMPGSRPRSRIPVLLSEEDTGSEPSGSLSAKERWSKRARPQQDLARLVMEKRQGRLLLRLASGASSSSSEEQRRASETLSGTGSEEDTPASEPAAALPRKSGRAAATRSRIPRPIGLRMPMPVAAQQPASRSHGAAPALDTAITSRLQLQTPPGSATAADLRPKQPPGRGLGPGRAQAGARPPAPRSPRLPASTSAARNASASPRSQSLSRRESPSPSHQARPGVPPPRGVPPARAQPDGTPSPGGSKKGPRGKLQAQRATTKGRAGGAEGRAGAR

As to `C=CS(=O)(=O)c1ccc(Nc2nc(OCC3CCCCC3)c3nc[nH]c3n2)cc1` [NU6300, 6-(cyclohexylmethoxy)-N-(4-(vinylsulfonyl)phenyl)-9H-purin-2-amine], the remaining activity at 1 µM at DYRK1A was 73%; at TTBK1 it was 83%; on EPH-B2, 96%; at PRAK it was 77%; at JAK2 it was 5%; on PAK4, 35%. The remaining activity at 1 µM stood at 70% at NEK6; 62% at FGF-R1; 91% at DYRK3; 27% on TAO1; 85% on MKK6.
